Source: ChEMBL document CHEMBL1152560, “Substituted 2-arylbenzothiazoles as kinase inhibitors: hit-to-lead optimization” (Bioorg Med Chem, 2009)

Assays:
[1] = target: Calcium/calmodulin-dependent protein kinase kinase 2 (Homo sapiens) (UniProt Q96RR4); experiment: Residual activity of CAMKK2 at 0.1 uM by microplate scintillation counting
[2] = target: Cyclin-dependent kinase 1/cyclin B1 (Homo sapiens) (UniProt P06493+P14635); experiment: Residual activity of CDK1/CyclinB1 at 1 uM by microplate scintillation counting; assay type: protein-complex assay
[3] = target: Tyrosine-protein kinase Fyn (Homo sapiens) (UniProt P06241); experiment: Residual activity of FYN at 1 uM by microplate scintillation counting
[4] = target: T1, Protein kinase C epsilon type (Homo sapiens) (UniProt Q02156); experiment: Residual activity of PKCepsilon at 1 uM by microplate scintillation counting
T1 sequence (whole entry): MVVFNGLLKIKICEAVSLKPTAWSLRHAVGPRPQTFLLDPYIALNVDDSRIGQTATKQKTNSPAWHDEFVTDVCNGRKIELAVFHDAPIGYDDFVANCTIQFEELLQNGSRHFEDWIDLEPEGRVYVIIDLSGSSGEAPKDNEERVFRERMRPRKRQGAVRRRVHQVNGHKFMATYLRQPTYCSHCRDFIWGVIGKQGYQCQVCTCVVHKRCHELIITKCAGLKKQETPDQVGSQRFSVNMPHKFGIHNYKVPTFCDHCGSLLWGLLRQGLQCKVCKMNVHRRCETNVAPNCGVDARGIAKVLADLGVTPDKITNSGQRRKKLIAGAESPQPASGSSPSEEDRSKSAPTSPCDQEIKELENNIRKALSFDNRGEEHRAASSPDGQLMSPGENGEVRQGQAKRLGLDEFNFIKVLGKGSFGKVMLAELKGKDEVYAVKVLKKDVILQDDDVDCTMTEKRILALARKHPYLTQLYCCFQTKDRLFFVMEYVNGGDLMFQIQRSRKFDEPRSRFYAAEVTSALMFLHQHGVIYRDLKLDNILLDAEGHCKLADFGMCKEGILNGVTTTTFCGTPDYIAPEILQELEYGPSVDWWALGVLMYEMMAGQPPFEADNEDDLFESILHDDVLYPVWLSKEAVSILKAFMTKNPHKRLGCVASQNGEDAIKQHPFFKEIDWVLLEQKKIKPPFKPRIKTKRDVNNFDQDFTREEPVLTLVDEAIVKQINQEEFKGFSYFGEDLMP

[5] = target: T2, Inhibitor of nuclear factor kappa-B kinase subunit epsilon (Homo sapiens) (UniProt Q14164); experiment: Residual activity of IKKepsilon at 0.1 uM by microplate scintillation counting
T2 sequence (whole entry): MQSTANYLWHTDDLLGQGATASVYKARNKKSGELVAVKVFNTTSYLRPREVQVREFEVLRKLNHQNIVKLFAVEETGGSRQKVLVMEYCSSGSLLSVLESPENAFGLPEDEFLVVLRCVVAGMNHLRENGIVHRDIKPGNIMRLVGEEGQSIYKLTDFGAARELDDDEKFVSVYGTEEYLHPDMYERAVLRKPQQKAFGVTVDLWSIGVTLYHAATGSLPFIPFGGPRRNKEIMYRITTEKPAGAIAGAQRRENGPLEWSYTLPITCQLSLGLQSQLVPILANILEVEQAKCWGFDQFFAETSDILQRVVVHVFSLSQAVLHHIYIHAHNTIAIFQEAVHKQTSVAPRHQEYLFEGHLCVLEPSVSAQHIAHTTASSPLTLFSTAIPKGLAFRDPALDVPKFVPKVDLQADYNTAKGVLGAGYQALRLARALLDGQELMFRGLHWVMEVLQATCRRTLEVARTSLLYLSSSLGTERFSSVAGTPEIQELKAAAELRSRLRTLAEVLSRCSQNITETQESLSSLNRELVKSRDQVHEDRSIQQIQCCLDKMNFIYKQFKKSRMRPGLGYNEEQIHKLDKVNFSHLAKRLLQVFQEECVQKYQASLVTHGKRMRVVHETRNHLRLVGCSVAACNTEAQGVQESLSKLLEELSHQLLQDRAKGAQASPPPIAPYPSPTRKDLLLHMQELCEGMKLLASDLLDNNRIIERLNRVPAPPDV

[6] = target: T3, Serine/threonine-protein kinase DCLK2 (Homo sapiens) (UniProt Q8N568); experiment: Residual activity of DCAMKL2 at 1 uM by microplate scintillation counting
T3 sequence (whole entry): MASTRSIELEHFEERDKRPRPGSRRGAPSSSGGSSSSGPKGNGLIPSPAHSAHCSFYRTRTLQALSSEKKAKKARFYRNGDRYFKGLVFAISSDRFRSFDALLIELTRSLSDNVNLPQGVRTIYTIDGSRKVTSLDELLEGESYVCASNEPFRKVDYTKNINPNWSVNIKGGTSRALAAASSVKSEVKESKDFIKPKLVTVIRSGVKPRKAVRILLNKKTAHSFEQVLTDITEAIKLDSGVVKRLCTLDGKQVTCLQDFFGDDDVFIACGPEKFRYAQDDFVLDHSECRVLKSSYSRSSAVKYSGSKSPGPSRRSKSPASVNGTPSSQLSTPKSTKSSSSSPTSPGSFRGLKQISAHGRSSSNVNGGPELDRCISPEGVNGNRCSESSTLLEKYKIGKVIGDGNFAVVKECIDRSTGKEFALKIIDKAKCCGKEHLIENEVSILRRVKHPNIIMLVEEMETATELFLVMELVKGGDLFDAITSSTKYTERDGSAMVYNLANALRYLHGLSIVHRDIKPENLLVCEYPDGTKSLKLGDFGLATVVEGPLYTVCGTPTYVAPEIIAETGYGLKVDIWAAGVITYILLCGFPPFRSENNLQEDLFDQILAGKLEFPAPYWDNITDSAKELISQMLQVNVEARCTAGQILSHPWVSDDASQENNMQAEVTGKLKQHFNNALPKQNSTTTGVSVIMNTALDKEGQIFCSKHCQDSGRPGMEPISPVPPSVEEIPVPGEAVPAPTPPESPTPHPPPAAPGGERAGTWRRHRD

[7] = target: Serine/threonine-protein kinase pim-2 (Homo sapiens) (UniProt Q9P1W9); experiment: Residual activity of PIM2 at 1 uM by microplate scintillation counting
Sequence of Serine/threonine-protein kinase pim-2 (Homo sapiens) (Q9P1W9 whole entry, looked up): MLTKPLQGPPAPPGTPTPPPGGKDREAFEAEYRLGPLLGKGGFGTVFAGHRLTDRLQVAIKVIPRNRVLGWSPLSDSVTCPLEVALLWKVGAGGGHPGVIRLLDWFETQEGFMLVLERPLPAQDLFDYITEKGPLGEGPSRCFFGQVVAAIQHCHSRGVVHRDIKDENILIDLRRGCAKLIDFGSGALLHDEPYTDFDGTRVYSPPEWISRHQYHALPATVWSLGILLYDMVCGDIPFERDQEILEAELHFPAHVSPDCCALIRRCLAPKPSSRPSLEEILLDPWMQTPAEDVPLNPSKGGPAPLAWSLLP

Sequence of Calcium/calmodulin-dependent protein kinase kinase 2 (Homo sapiens) (Q96RR4 2-588 limits assumed): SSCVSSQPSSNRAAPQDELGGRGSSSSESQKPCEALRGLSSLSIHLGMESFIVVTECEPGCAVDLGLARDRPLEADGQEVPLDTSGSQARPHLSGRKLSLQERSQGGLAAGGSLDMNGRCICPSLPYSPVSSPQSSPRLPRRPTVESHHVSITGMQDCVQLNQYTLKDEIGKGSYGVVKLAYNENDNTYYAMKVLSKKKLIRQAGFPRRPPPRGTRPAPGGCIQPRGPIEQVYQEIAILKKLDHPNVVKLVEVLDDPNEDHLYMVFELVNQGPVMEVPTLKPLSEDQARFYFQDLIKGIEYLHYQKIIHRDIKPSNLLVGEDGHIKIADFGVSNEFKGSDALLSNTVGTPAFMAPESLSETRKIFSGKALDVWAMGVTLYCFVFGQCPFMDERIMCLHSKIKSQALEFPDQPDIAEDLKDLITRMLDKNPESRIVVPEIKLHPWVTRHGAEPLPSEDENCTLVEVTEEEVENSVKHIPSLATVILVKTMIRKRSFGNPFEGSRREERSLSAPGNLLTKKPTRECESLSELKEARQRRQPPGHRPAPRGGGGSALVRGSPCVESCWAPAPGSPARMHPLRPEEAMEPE
Sequence of Cyclin-dependent kinase 1/cyclin B1 (Homo sapiens) (P06493 whole entry, looked up): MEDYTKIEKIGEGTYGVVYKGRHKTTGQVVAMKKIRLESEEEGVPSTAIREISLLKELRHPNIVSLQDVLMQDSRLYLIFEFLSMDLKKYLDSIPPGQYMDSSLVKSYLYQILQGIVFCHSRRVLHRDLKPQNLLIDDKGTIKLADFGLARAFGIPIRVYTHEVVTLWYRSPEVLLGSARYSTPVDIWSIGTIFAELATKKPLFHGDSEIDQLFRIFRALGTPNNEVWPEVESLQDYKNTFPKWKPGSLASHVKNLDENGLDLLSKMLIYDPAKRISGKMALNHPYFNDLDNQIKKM
Sequence of Cyclin-dependent kinase 1/cyclin B1 (Homo sapiens) (P14635 whole entry, looked up): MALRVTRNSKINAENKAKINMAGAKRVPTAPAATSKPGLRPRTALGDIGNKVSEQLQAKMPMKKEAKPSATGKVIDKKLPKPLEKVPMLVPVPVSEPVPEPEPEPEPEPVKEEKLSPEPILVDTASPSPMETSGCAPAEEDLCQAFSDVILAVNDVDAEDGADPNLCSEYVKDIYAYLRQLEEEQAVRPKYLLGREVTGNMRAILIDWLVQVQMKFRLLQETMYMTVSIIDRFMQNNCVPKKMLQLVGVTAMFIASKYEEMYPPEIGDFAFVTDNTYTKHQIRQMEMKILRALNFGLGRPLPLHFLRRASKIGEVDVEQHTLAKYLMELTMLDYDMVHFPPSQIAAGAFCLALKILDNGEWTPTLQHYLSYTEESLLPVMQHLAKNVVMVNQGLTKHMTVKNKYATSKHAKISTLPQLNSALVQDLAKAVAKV
Sequence of Tyrosine-protein kinase Fyn (Homo sapiens) (P06241 2-537 limits assumed): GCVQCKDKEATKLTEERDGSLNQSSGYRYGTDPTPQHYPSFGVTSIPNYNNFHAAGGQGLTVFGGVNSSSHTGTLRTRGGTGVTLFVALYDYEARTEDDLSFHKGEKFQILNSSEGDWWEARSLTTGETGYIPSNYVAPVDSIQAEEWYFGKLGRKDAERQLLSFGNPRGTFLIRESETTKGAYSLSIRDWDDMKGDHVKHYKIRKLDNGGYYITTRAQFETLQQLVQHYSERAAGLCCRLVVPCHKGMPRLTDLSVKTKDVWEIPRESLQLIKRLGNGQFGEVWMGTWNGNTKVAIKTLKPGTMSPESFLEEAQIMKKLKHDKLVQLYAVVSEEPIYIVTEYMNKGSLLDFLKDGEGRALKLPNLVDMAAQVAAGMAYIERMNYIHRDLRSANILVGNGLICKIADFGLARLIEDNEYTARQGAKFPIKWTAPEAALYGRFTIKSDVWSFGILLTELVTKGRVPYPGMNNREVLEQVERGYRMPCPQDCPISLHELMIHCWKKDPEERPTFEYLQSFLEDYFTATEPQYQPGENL

SMILES	residual activity [1] [%]	residual activity [2] [%]	residual activity [3] [%]	residual activity [4] [%]	residual activity [5] [%]	residual activity [6] [%]	residual activity [7] [%]
COc1cc2c(Oc3ccc(-c4nc5ccccc5s4)cc3F)ncnc2cc1OCCCN1CCN(C)CC1	84	99	106	90	87	76	77
COc1cc2c(Oc3ccc(-c4nc5ccccc5s4)cc3)ncnc2cc1OCCCN1CCCC1	91	81	106	80	92	71	89
COc1cc2c(Oc3ccc(-c4nc5ccccc5s4)cc3)ncnc2cc1OCCCN1CCN(C)CC1	86	89	105	94	91	80	63
